Test results: patent publication US12521393B2, “Cytotoxicity targeting chimeras for CCR2-expressing cells” (GLAXOSMITHKLINE INTELLECTUAL PROPERTY DEVELOPMENT LIMITED, priority 2021, dated 2026)
Where a name gives a salt, the structure may show the parent alone.

What was measured:
[1] = biological target: anti-cotinine antibody (SEQ ID NO: 11/12, rabbit variable region with human IgG1 Fc DE mutation); experiment: SPR binding of anti-cotinine antibody to ARM compounds, Biacore T200, 37° C. (Example 202); conditions: SPR Biacore T200, 37° C., pH 7.4, antibody SEQ ID NO: 11/12 captured on protein A; Kd in molar
Experimental: Anti-cotinine antibodies having a heavy chain sequence of SEQ ID NO: 11 and a light chain sequence of SEQ ID NO: 12 (rabbit variable region with human IgG1 Fc domain containing a DE mutation (S239D/1332E)) were captured on one or more flow cells of a protein A sensor chip (Cytiva) using a Biacore T200 while reserving flow cell 1 as a reference. Following capture, a 3000 second wait step was included to reduce drift during compound analysis. ARM compounds of Formula (I) were then injected at 100 μL/min with 200 and 2000 second association and dissociation times. The entire experiment was run at 37° C. with running buffer containing 10 mM HEPES pH 7.4, 150 mM NaCl, 0.005% P20 and 1% DMSO. ARM compounds of Formula (I) were titrated with a top concentration of 200 nM using a 3-fold 5-point dilution series and a corresponding 5-injection buffer cycle was run for blank subtraction. Data were double referenced by subtracting the response of the reference flow cell from that of the antibody-containing flow cell and subsequently subtracting the referenced blank sensorgrams. Following compound analysis, the surface was regenerated using a 30 second injection of pH 1.5 glycine at a flow rate of 30 μL/min after which antibody was re-captured. The experiment was run using Biacore T200 control software and evaluated using Biacore T200 Evaluation software. Curves were fit with a 1:1 kinetic binding model to obtain kon (1/Ms), koff(1/s), Kd (M) determined as koff/kon, and residence time determined as 1/koff (s).
Anti-cotinine antibody was tested for binding to ARMs compounds of Formula (I) of the invention in the above assay in or more experimental runs and the results are shown in Table 5 below. Affinity is reported as a pKd value. The pKd value is the negative log of the Kd value, wherein the Kd value is the dissociation constant measured in molar (M) as noted above. For compounds tested in more than one experimental run, the pKd value is reported as an average

[2] = system: endogenous target monocytes in human PBMC; experiment: PBMC ex vivo monocyte depletion flow cytometry assay (Example 200); format: cell-based; conditions: with anti-cotinine antibody (SEQ ID NO: 11/12), 18-24 hours, EC50 in molar, read-out: Ex Vivo Depletion Assay pEC50 (converted)
Method in brief: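 Monocyte depletion is reported as pEC50, averaged or given individually across runs, and read by flow cytometry staining CD45, CD14 and CD4 with a viability dye. Compounds, diluted four-fold over 11 points from 1 mM DMSO stocks, were combined with 30 μg/mL Fc-enhanced anti-cotinine antibody and human PBMC, then incubated 18-24 h at 37° C.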

[3] = biological target: human alpha1 nicotinic acetylcholine (nACh) receptor (Homo sapiens, UniProt P02708); experiment: Nicotinic acetylcholine receptor antagonism assay, IONFlux automated patch clamp (Example 203); format: cell-based; conditions: for IC50: antagonism of ACh-stimulated human alpha1 nAChR current, patch clamp; for Emax at 10 µM: maximum percentage antagonism at maximum concentration tested 10 μM
Experimental: Cells expressing human alpha1 nicotinic acetylcholine (nACh) receptor (nAChR) were washed and dissociated using Trypsin containing buffer. Cells were then washed and seeded at a density of 3-5 million cells/mL and allowed to grow for 3 days. Then, 60-80 μL of cells were added to plates and incubated with dose response of an ARM compound of Formula (I) with a top concentration of either 10 μM or 100 μM. The receptor was then stimulated via addition of acetylcholine (ACh) and activation of the receptor was monitored via the IONFlux automated patch clamp system. IonFlux Data Analyzer software was utilized to perform leak subtraction and measure (min) peak current amplitude.
Data processing: (1) Current values recorded for vehicle only applications in individual traps/patterns were subtracted from corresponding current amplitude values for control, test article and control+test article. (2) Control response was calculated as % of the average response of the 3rd out of total 3 ACh (10 mM) applications alone. In rare situations, if the 3rd ACh response was obscured due to technical artifacts, the 2nd and/or 1st ACh (10 mM) application was considered as control. The peak current amplitude generated in the presence of each test article concentration was then used to calculate the % inhibition as compared to control response (10 mM ACh alone). These estimates were further corrected for vehicle response and run down corrected by normalizing with time matched control responses (10 mM ACh alone). The corrected percentages were then fit with a non-linear function in GraphPad Prism 6 (or later versions) to determine the IC50.
Exclusion criteria: (i) any n's with poor recording quality, (ii) control current amplitude <500 pA or (iii) significant outliers, as determined by the Grubbs test.
ARMs compounds of Formula (I) of the invention were tested for antagonism of the nAChR in the above assay in […] experimental runs and the results are shown in Table 7 below. Antagonistic activity of the compounds of Formula (I) of the invention is reported as an IC50 value (half maximal inhibitory concentration) and the maximum percentage antagonism observed at the highest concentration of compound of Formula (I) tested, as indicated in Table 7. For compounds tested in more than one experimental run, the IC50 value is reported as an average

[4] = system: CCR2 expressing cells (CD11b+Ly6c+Hi) in peripheral blood; experiment: In vivo depletion assay, flow cytometry of peripheral blood (Example 201); design: species or system human CCR2 knock-in mice (C57 background); conditions: hCCR2 knock-in mice, IV 0.1 mpk compound + 10 mpk anti-cotinine antibody (SEQ ID NO: 13/14), peripheral blood at 48 hr
Method in brief: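 Mice dosed with compound formulated in saline/DMSO/PBS, with anti-cotinine antibody (rabbit variable region, mouse IgG2a Fc) where required, pre-incubated 30 min at room temperature. Terminal peripheral blood RBC-lysed, Fc-blocked, stained for CD45, CD3, CD11b, Ly6C, human CCR2 and 7AAD; percent depletion of CD11b+Ly6c+Hi cells determined by flow cytometry.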

human alpha1 nicotinic acetylcholine (nACh) receptor, sequence (P02708 21-457): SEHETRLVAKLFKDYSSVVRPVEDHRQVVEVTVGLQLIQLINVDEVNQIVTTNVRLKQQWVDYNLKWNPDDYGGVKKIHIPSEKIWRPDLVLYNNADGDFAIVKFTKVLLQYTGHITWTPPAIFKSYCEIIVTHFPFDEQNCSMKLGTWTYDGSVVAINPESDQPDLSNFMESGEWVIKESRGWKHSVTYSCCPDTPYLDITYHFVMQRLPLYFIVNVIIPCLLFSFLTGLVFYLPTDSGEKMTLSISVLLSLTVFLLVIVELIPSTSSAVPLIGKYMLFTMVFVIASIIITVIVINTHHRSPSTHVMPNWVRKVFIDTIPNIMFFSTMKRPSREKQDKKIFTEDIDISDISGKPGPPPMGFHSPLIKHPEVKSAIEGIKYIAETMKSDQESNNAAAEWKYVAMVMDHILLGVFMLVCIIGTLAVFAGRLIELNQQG
human alpha1 nicotinic acetylcholine (nACh) receptor, sequence (P11230 24-501 partner): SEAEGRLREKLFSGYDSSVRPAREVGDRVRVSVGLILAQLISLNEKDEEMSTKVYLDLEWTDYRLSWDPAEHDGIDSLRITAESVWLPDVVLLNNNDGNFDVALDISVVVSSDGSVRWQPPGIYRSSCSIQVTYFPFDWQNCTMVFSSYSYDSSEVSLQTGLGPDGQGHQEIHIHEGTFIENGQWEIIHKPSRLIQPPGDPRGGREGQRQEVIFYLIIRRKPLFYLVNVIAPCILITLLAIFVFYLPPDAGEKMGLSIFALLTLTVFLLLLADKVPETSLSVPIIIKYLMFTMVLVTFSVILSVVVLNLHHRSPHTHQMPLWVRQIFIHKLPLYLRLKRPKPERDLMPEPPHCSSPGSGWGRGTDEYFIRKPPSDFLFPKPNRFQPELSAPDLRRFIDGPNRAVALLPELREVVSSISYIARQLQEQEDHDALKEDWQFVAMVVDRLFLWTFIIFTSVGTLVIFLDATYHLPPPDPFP
human alpha1 nicotinic acetylcholine (nACh) receptor, sequence (Q07001 22-517 partner): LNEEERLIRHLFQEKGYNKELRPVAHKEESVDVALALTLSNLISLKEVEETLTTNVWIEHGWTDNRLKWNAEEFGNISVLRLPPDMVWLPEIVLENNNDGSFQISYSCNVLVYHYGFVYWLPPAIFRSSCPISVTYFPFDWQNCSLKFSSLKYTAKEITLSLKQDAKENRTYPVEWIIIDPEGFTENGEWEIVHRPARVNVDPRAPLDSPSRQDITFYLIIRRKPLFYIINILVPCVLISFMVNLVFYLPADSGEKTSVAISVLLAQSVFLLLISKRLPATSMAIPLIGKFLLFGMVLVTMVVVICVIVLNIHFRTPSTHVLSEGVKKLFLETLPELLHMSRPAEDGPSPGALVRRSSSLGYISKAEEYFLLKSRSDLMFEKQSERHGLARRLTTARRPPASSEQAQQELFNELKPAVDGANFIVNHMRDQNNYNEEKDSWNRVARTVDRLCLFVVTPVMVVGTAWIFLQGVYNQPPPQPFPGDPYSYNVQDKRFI

| Structure (SMILES) | IC50 [3] | Emax at 10 µM ([3]; read-out: Maximum Response) | pKd of Antibody for ARM Compound of Formula (I) [1] | EC50 [2] | Emax at 100 µM ([3]; maximum percentage antagonism at maximum concentration tested 100 μM, read-out: Maximum Response) | % Depletion of CCR2 expressing cells [4] |
| --- | --- | --- | --- | --- | --- | --- |
| CC(C)N(C)[C@@H]1CC[C@H](N2CC[C@H](Nc3ncnc4ccc(C(F)(F)F)cc34)C2=O)[C@H](NC(=O)C2CCN(C(=O)CCOCCOCCOCCNC(=O)[C@H]3CC(=O)N(C)[C@@H]3c3cccnc3)CC2)C1 [Example 29, N-((1R,2S,5R)-5-(Isopropyl(methyl)amino)-2-((S)-2-oxo-3-((6-(trifluoromethyl)quinazolin-4-yl)amino)pyrrolidin-1-yl)cyclohexyl)-1-(1-((2S,3S)-1-methyl-5-oxo-2-(pyridin-3-yl)pyrrolidin-3-yl)-1-oxo-5,8,11-trioxa-2-azatetradecan-14-oyl)piperidine-4-carboxamide] |  |  | 9.3345 | 2.51 nM |  |  |
| CC(C)N(C)[C@@H]1CC[C@H](N2CC[C@H](Nc3ncnc4ccc(C(F)(F)F)cc34)C2=O)[C@H](NC(=O)[C@H]2C[C@@H](NC(=O)CCOCCNC(=O)CCOCCNC(=O)[C@H]3CC(=O)N(C)[C@@H]3c3cccnc3)C2)C1 [Example 44, (2S,3S)-N-(2-(3-((2-(3-(((1S,3s)-3-(((1R,2S,5R)-5-(Isopropyl(methyl)amino)-2-((S)-2-oxo-3-((6-(trifluoromethyl)quinazolin-4-yl)amino)pyrrolidin-1-yl)cyclohexyl)carbamoyl)cyclobutyl)amino)-3-oxopropoxy)ethyl)amino)-3-oxopropoxy)ethyl)-1-methyl-5-oxo-2-(pyridin-3-yl)pyrrolidine-3-carboxamide] | ≥ 100000 nM |  |  | 0.631 nM | 51.5% | 91% |
| CC(C)N(C)[C@@H]1CC[C@H](N2CC[C@H](Nc3ncnc4ccc(C(F)(F)F)cc34)C2=O)[C@H](NC(=O)[C@H]2CC[C@@H](NC(=O)COCCOCCNC(=O)CNC(=O)[C@H]3CC(=O)N(C)[C@@H]3c3cccnc3)CC2)C1 [Example 171, (2S,3S)-N-(2-((2-(2-(2-(((1S,4s)-4-(((1R,2S,5R)-5-(Isopropyl(methyl)amino)-2-((S)-2-oxo-3-((6-(trifluoromethyl)quinazolin-4-yl)amino)pyrrolidin-1-yl)cyclohexyl)carbamoyl)cyclohexyl)amino)-2-oxoethoxy)ethoxy)ethyl)amino)-2-oxoethyl)-1-methyl-5-oxo-2-(pyridin-3-yl)pyrrolidine-3-carboxamide] |  |  | 8.7865 |  |  |  |

Now from value to compound, other results behind:

| IC50 [3] | Emax at 10 µM ([3]; read-out: Maximum Response) | Structure (SMILES) | pKd of Antibody for ARM Compound of Formula (I) [1] | EC50 [2] | Emax at 100 µM ([3]; maximum percentage antagonism at maximum concentration tested 100 μM, read-out: Maximum Response) | % Depletion of CCR2 expressing cells [4] |
| --- | --- | --- | --- | --- | --- | --- |
| 4660 nM | 67.1% | CC(C)N(C)[C@@H]1CC[C@H](N2CC[C@H](Nc3ncnc4ccc(C(F)(F)F)cc34)C2=O)[C@H](NC(=O)c2ccc(C3CCN(CCOCCOCCNC(=O)[C@H]4CC(=O)N(C)[C@@H]4c4cccnc4)CC3)cn2)C1 [Example 94, N-((1R,2S,5R)-5-(Isopropyl(methyl)amino)-2-((S)-2-oxo-3-((6-(trifluoromethyl)quinazolin-4-yl)amino)pyrrolidin-1-yl)cyclohexyl)-5-(1-(2-(2-(2-((2S,3S)-1-methyl-5-oxo-2-(pyridin-3-yl)pyrrolidine-3-carboxamido)ethoxy)ethoxy)ethyl)piperidin-4-yl)picolinamide] |  | 2 nM |  | 88.66% |
| ≥ 10000 nM | 16.8% | CC(C)N(C)[C@@H]1CC[C@H](N2CC[C@H](Nc3ncnc4ccc(C(F)(F)F)cc34)C2=O)[C@H](NC(=O)c2ccc(N3CCC(C(=O)NCCOCCOCCNC(=O)[C@H]4CC(=O)N(C)[C@@H]4c4cccnc4)CC3)cc2)C1 [Example 130, 1-(4-(((1R,2S,5R)-5-(Isopropyl(methyl)amino)-2-((S)-2-oxo-3-((6-(trifluoromethyl)quinazolin-4-yl)amino)pyrrolidin-1-yl)cyclohexyl)carbamoyl)phenyl)-N-(2-(2-(2-((2S,3S)-1-methyl-5-oxo-2-(pyridin-3-yl)pyrrolidine-3-carboxamido)ethoxy)ethoxy)ethyl)piperidine-4-carboxamide] |  | 0.631 nM |  | 81.81% |
| ≥ 10000 nM | 18.2% | CC(C)N(C)[C@@H]1CC[C@H](N2CC[C@H](Nc3ncnc4ccc(C(F)(F)F)cc34)C2=O)[C@H](NC(=O)[C@H]2CC[C@H](c3ccc(C(=O)NCCOCCOCCNC(=O)[C@H]4CC(=O)N(C)[C@@H]4c4cccnc4)cc3)CC2)C1 [Example 140, (2S,3S)-N-(2-(2-(2-(4-((1R,4r)-4-(((1R,2S,5R)-5-(Isopropyl(methyl)amino)-2-((S)-2-oxo-3-((6-(trifluoromethyl)quinazolin-4-yl)amino)pyrrolidin-1-yl)cyclohexyl)carbamoyl)cyclohexyl)benzamido)ethoxy)ethoxy)ethyl)-1-methyl-5-oxo-2-(pyridin-3-yl)pyrrolidine-3-carboxamide] |  | 0.398 nM |  | 89.13% |
| ≥ 10000 nM | 13.1% | CC(C)N(C)[C@@H]1CC[C@H](N2CC[C@H](Nc3ncnc4ccc(C(F)(F)F)cc34)C2=O)[C@H](NC(=O)C2CCN(c3ccc(C(=O)NCCOCCOCCNC(=O)[C@H]4CC(=O)N(C)[C@@H]4c4cccnc4)cc3)CC2)C1 [Example 142, N-((1R,2S,5R)-5-(Isopropyl(methyl)amino)-2-((S)-2-oxo-3-((6-(trifluoromethyl)quinazolin-4-yl)amino)pyrrolidin-1-yl)cyclohexyl)-1-(4-((2-(2-(2-((2S,3S)-1-methyl-5-oxo-2-(pyridin-3-yl)pyrrolidine-3-carboxamido)ethoxy)ethoxy)ethyl)carbamoyl)phenyl)piperidine-4-carboxamide] |  | 0.398 nM |  | 79.27% |
| 6390 nM | 69.2% | CC(C)N(C)[C@@H]1CC[C@H](N2CC[C@H](Nc3ncnc4ccc(C(F)(F)F)cc34)C2=O)[C@H](NC(=O)CCOCCN2CCC3(CCC(C(=O)NCCNC(=O)[C@H]4CC(=O)N(C)[C@@H]4c4cccnc4)CC3)CC2)C1 [Example 184, 3-(2-(3-(((1R,2S,5R)-5-(isopropyl(methyl)amino)-2-((S)-2-oxo-3-((6-(trifluoromethyl)quinazolin-4-yl)amino)450yridine450ne-1-yl)cyclohexyl)amino)-3-oxopropoxy)ethyl)-N-(2-((2S,3S)-1-methyl-5-oxo-2-(450yridine-3-yl)pyrrolidine-3-carboxamido)ethyl)-3-azaspiro[5.5]undecane-9-carboxamide, 3Formic acid salt] |  | 0.251 nM |  | 85.99% |
